Test systems include HCT-116; K562; A549; COLO 205; SK-MEL-5; NCI-H226; NCI/ADR-RES; ACHN; OVCAR-3; MCF7; Hs-578T; M14; OVCAR-8; IGROV-1; OVCAR-5; T47D; 786-0; MDA-MB-231; HL-60; HCT-15.
What all share (test): NCI-60 cell line screen, 48 h

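Cells were grown in 96-well plates and exposed to each compound for 48 hours at five concentrations; endpoints were interpolated linearly between bracketing concentrations, or set to the highest concentration if not reached. GI50 marks 50% less growth.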 Calls of active or inactive are those of the source. Cut-off read from the data, not from the text of the source: active = GI50 up to about 1.1 µM and inactive = higher.

With `O=C(O)c1c(-c2c3ccc(=O)cc-3oc3cc(O)ccc23)cc2ccccc2c1-c1ccccc1`, the GI50 with HCT-116 is > 100 µM (inactive); in the assay on K562, 4.51 µM (inactive); in the assay with A549 it was > 100 µM (inactive); in the assay on COLO 205, > 100 µM (inactive); in the assay with SK-MEL-5, > 100 µM (inactive); with NCI-H226, > 100 µM (inactive). For the same compound, the GI50 with NCI/ADR-RES, with ACHN, in the assay with OVCAR-3, in the assay with MCF7, in the assay with Hs-578T and with M14 was > 100 µM (inactive) each time. Further, the GI50 in the assay with OVCAR-8 is > 100 µM (inactive); in the assay with IGROV-1, > 100 µM (inactive); with OVCAR-5 it was > 100 µM (inactive); with T47D, > 93.1 µM (inactive); in the assay on 786-0, > 100 µM (inactive); with MDA-MB-231, > 100 µM (inactive). Moreover, the values for the GI50 with HL-60 and with HCT-15 were > 74.6 µM (inactive) and > 100 µM, respectively.
Take `CCN(CC)CC(O)CNc1ccc(NCC(O)CCl)c2c1C(=O)c1ccccc1C2=O` (stereo not given): the GI50 in the assay with HCT-116 was 1.67 µM (inactive); in the assay on K562, 1.27 µM (inactive); in the assay on A549 it was 9.27 µM (inactive); in the assay on COLO 205, 6.47 µM (inactive); in the assay with SK-MEL-5, 7.48 µM (inactive); in the assay on NCI-H226 it was 9.95 µM (inactive). Besides, the GI50 in the assay on NCI/ADR-RES is 2.45 µM (inactive); in the assay on ACHN, 2.97 µM (inactive); in the assay on OVCAR-3, 6.78 µM (inactive); with MCF7 it was 1.56 µM (inactive); in the assay with Hs-578T it was 11.6 µM (inactive); with M14, 3.3 µM (inactive). In addition, the GI50 with OVCAR-8 was 3.85 µM (inactive); in the assay with IGROV-1, 10 µM (inactive); with OVCAR-5 it was 15.1 µM (inactive); in the assay with T47D, 21.1 µM (inactive); in the assay with 786-0, 2.98 µM (inactive); with MDA-MB-231, 11.1 µM (inactive). The GI50 with HL-60 was 3.54 µM (inactive); in the assay with HCT-15 it was 6.1 µM.
On to `CC(=O)Nc1ncc(Sc2ccccc2C(=O)O)s1`, for which the GI50 in the assay on HCT-116, with K562, in the assay on A549, with COLO 205, with SK-MEL-5 and with NCI-H226 was > 100 µM (inactive) in each case. Also, the GI50 in the assay with NCI/ADR-RES, in the assay on ACHN, in the assay on OVCAR-3, in the assay on MCF7, with Hs-578T and in the assay on M14 was > 100 µM (inactive) throughout. The GI50 in the assay with OVCAR-8, in the assay on IGROV-1, in the assay on OVCAR-5, in the assay on T47D, in the assay on 786-0 and in the assay on MDA-MB-231 was > 100 µM (inactive) in each case. For the same compound, the GI50 with HL-60 was > 100 µM (inactive); in the assay on HCT-15, > 100 µM.
Turning to `O=C1C=CC(=O)c2c(O)c(N3CCN(c4ccccn4)CC3)cc(O)c21`, the GI50 with HCT-116 was 2.85 µM (inactive); in the assay with K562, 4.38 µM (inactive); with A549 it was 5.85 µM (inactive); in the assay on COLO 205, 5.35 µM (inactive); in the assay on SK-MEL-5, 1.77 µM (inactive); with NCI-H226 it was 45.7 µM (inactive). For the same compound, the GI50 in the assay with NCI/ADR-RES was 2.33 µM (inactive); in the assay on ACHN it was 6.89 µM (inactive); in the assay on OVCAR-3, 4.18 µM (inactive); with MCF7 it was 3.11 µM (inactive); in the assay with Hs-578T it was 16.1 µM (inactive); in the assay on M14, 3.29 µM (inactive). Further, the GI50 in the assay with OVCAR-8 is 5.69 µM (inactive); with IGROV-1, 10.1 µM (inactive); in the assay with OVCAR-5 it was 46.5 µM (inactive); with T47D it was 29.4 µM (inactive); in the assay with 786-0, 7.24 µM (inactive); with MDA-MB-231 it was 13 µM (inactive). Also, the GI50 in the assay with HL-60 was 3.01 µM (inactive); with HCT-15, 3.28 µM.
